# Data reported in US8114843B2, “Photoreactive regulator of protein function and methods of use thereof” (The Regents of the University of California, priority 2005, dated 2012).
# Entries after “also recorded” stand apart in the source; their conditions may differ.
# Tests used:
# Solubility = type: physicochemical; conditions: for solubility: read-out: solubility limit
# [1] = system: voltage-gated outward current (endogenous K+ channels) in cultured hippocampal neurons; experiment: Photocontrol of K+ current in cultured hippocampal neurons; type: cell-based, rat; conditions: 200 μM, 15 min in the dark
# Method: Hippocampal neurons were prepared from neonatal Sprague-Dawley rats according to standard procedures (Goslin) and grown on poly-L-lysine coated coverslips in MEM supplemented with 5% fetal bovine serum, B27 (Invitrogen), glutamine and serum extender (BD Biosciences). Animal care and experimental protocols were approved by the UC Berkeley Animal Care and Use Committee. Recordings were performed 9-16 days after plating. The Shaker construct also contains an N-terminal deletion (Δ6-46) to minimize fast inactivation.
# (§1) PAL attachment. HEK293 and hippocampal cells were rinsed in extracellular solution containing in mM: 138 NaCl, 1.5 KCl, 1.2 MgCl2, 2.5 CaCl2, 5 HEPES, 10 glucose and incubated at 37° C. in the dark with 200-250 μM PAL for 15 minutes. For slices, AAQ was diluted to 200 μM in aCSF and treatment was performed in the dark at room temperature for 10 minutes.
# Electrophysiological recording. Recordings from HEK293 and hippocampal neurons were made in the whole-cell patch clamp configuration using a PC-501A amplifier (Warner Instruments). Pulse protocols and measurements were carried out with pCLAMP and a Digidata 1322 interface (Axon Instruments). For voltage-clamp experiment, cells were held at −70 mV. Data was recorded at 20 kHz and filtered at 2 kHz. […]
# [2] = system: hippocampal pyramidal neurons transfected with the multiply-mutated Shaker channel; experiment: Current clamp recordings from cultured hippocampal neurons treated with MAL-AZO-QA; type: cell-based, rat
# Method: Primary dissociated hippocampal cultures were prepared from E18-19 Sprague-Dewey rat embryos and grown on glass cover slips in serum-containing media and incubated in 7% CO2 in air at 37° C. Cells were co-transfected with GFP along with the modified Shaker channel described above with additional L366A and V454L mutations. Transfections with Lipofectamine 2000™ were performed at 12-14 DIV. About 10% of the cultured neurons appeared GFP-positive at 2-3 days after transfection. Coverslips containing the neurons were treated at 37° C. for 15 min with 300 μM MAL-AZO-QA in an extracellular recording solution containing (in mM) 135 NaCl, 5 KCl, 1.2 MgCl2, 5 HEPES, 2.5 CaCl2, and 10 glucose at pH 7.4. Patch pipettes (7-10 MΩ) were filled with 10 NaCl, 135 K-gluconate, 10 HEPES, 2 MgCl2, 2 Mg-ATP, and 1 EGTA at pH 7.4. After washout of MAL-AZO-QA with extracellular solution, membrane potential was recorded at room temperature under whole-cell current clamp with an AXOPATCH 200A amplifier (Axon Instruments) and filtered at 10 kHz. Initial recordings were made at resting potential to evaluate the effects of light on spontaneous activity. In experiments where we wanted to quantify the effect of light on firing (e.g. FIG. 4b), cultures were treated with 6-cyano-7-nitroquinoxaline-2,3-dione (CNQX) (1 μM) and bicuculline (10 μM) to silence synaptic activity. Baseline currents were adjusted to set the membrane potential at −50 mV before depolarizing current steps ranging from 0.01-0.03 nA were applied to evoke action potentials. Cells were irradiated with a Lambda-LS illuminator containing a 125 watt xenon arc lamp (Sutter Instruments Company), equipped with narrow bandpass (+/−10 nm) filters through a Fluor 20×, 0.5 NA objective lens (Nikon). Variability among data is expressed as mean+/−SEM, unless noted otherwise.
# [3] = target: Shaker H4 (Δ6-46, E422C, T449V) (Drosophila melanogaster, UniProt P08510, DEL6-46/E422C/T449V); experiment: Patch recordings of MAL-AZO-QA-modified Shaker channels in Xenopus oocytes; type: cell-based
# Shaker H4 (Δ6-46, E422C, T449V), sequence (P08510 other isoform, or with tags, fused parts or gaps DEL6-46/E422C/T449V): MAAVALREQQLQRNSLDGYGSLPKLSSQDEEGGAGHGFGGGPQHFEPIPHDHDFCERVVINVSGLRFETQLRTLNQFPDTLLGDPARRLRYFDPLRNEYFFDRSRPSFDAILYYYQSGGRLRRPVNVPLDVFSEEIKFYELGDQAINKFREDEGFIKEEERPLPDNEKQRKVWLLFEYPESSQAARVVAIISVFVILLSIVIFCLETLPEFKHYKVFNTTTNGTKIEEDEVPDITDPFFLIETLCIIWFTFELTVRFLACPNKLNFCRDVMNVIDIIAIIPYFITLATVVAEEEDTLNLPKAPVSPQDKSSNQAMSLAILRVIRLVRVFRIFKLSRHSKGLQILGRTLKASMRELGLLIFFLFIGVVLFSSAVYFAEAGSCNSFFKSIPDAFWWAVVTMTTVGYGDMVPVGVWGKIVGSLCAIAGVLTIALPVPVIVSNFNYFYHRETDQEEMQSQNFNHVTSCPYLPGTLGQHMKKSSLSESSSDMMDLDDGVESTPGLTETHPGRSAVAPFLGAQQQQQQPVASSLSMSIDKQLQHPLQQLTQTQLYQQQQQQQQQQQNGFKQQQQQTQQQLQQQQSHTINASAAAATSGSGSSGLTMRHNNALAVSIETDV
# Method: Xenopus oocytes were injected with […] of mRNA encoding Shaker H4, with the following mutations: Δ6-46, E422C, T449V. […] Devitillenized oocytes were recorded from 2-10 days post-injection using standard patch-clamp methods. For outside-out patches, glass patch pipettes (2-4 MΩ) were filled with a solution containing (in mM) 100 KCl, 10 HEPES, 0.1 CaCl2, 0.5 MgCl2, and 10 EGTA, while the bath contained 10 KCl, 90 NaCl, 10 HEPES, 0.1 CaCl2, 0.5 MgCl2, and 10 EGTA. For inside-out patches, patch pipettes and bath both contained 100 KCl, 10 HEPES, 0.1 CaCl2, 0.5 MgCl2, and 10 EGTA. The pH of all solutions was 7.1. Solid MAL-AZO-QA was dissolved as a concentrated stock solution in DMSO and stored at −20° C. until the day of use. Stocks were diluted into oocyte bath solution to final concentrations of 10 μM or 100 μM. […] Pulse protocols and measurements were performed with pCLAMP software, a DigiData 1200 series interface, and a PC-505 amplifier (Warner Instruments). Samples were taken at 10 kHz and the data was filtered at 1 kHz. Patches were held at −90 mV, pulsed to −100 mV for 60 msec to monitor leak, and pulsed to −20 mV for 30-100 msec at 1 Hz to elicit Shaker currents. The peak of the Shaker currents was measured to minimize the contribution of slow inactivation. Patches with a leak conductance>100 pS were not included in analysis.
# Discrete wavelengths of light (+/−10 nm) were focused on patches through a quartz coverslip with a Fluor 20×, 0.5 NA objective lens (Nikon). Output intensity was measured for wavelengths between 300 and 600 nm. The measured output intensities for wavelengths between 340-600 nm ranged from 0.324e-8 to 6.23e-8 W/cm^2. Differences in light intensities at different wavelengths were taken into account when determining action spectra for channel block and unblock.
# wild-type Shaker (E422) = target: T1, wild-type Shaker (E422) (Drosophila melanogaster, UniProt P08510, DEL6-46); experiment: PAL photoswitching, whole-cell patch clamp in HEK293 cells; type: cell-based
# T1 construct: expressed in transfected cells; host or cells: HEK293
# T1 sequence (P08510 other isoform, or with tags, fused parts or gaps DEL6-46): as the sequence (P08510 other isoform, or with tags, fused parts or gaps DEL6-46/E422C/T449V) above, with C381E, V408T counted along it
# Method: Cell culture and transfection. HEK293 cells were grown in DMEM containing 5% fetal bovine serum, at 37° C., 7% CO2. For electrophysiology, cells were plated at 12×10^5 cells/cm^2 on poly-L-lysine coated coverslips and transfected using the calcium phosphate method. Recordings were performed 24-36 hours after transfection.
# as §1
# Electrophysiological recording. Recordings from HEK293 and hippocampal neurons were made in the whole-cell patch clamp configuration using a PC-501A amplifier (Warner Instruments). Pulse protocols and measurements were carried out with pCLAMP and a Digidata 1322 interface (Axon Instruments). For voltage-clamp experiment, cells were held at −70 mV. Data was recorded at 20 kHz and filtered at 2 kHz. Recording pipettes with 2.5-4 MΩ resistance were filled with intracellular solution containing in mM: 10 NaCl, 135 K-gluconate, 10 HEPES, 2 MgCl2, 2 MgATP, 1 EGTA, pH 7.4.
# Illumination was provided using a xenon lamp (Sutter Instruments) with narrow band pass filters (380 BP10 for UV and 500 BP5 for visible light respectively). Excitation filters were changed using a lambda 10-2 filter changer (Sutter Instruments) controlled via pCLAMP software.
# Percent photoswitching was defined as the difference between current in UV and visible light divided by current in UV. All data shown in bar graphs are averages±standard error of the mean.
# [4] = system: cultured hippocampal neurons; experiment: Live/Dead assay after PAL treatment; type: cell-based; conditions: 200 μM
# From the text: Live/Dead assay. After PAL treatment, hippocampal neurons were processed for the live dead assay (Molecular Probes) according to the manufacturer's instructions. Cells were counted in 4-8 fields for each treatment condition.
# hippocampal neurons = experiment: Live-Dead viability/cytotoxicity assay after MAG exposure; conditions: 12 hours continuous exposure, several concentrations; listed as MAG
# Method: Neuronal survival following 12 hours of continuous exposure to several concentrations of MAG was also examined.
# [5] = Photostationary state determination by NMR; type: physicochemical; conditions: MAG-1 conjugated to β-mercaptoethanol, D2O
# Method: Cis-trans photoisomerization of MAG-1 conjugated with β-mercaptoethanol (see Supplementary Methods online) was studied by ^1H NMR, with in situ irradiation of sample using a Polychrom V system monochromator (Till Photonics) containing a 150 W Xenon short arc lamp with an output range of 320-680 nm (29). The half-power bandwidth was 14 nm. A 500 μl aliquot of a 100 μM sample in D2O was prepared in a screw-capped 528-TR-7 NMR tube (Wilmad). A FT-600-UMT fiber optic cable (NA 0.39) (Thorlabs) was coupled at one end to the monochromator using a custom fitting and the other end inserted into the NMR tube a few millimeters above the solution. Each sample was irradiated at the desired wavelength for 30 minutes to reach the photostationary state and 480 scans were required to obtain reasonable signal-to-noise ratios. The output from the fiber optic cable between 340-480 nm ranged from 0.3-9.0 μW/cm^2. Data were processed by isolating aromatic cis-trans ^1H signals and summing their integrals to 1.0. All data were obtained in triplicate and averaged. This analysis will be detailed further in a future paper by Banghart, M. R. et al. (in preparation).
# iGluR6 = target: T2, iGluR6 (Rattus norvegicus, UniProt P42260); experiment: Calcium imaging of iGluR6 activity in HEK293 cells; type: cell-based
# T2 construct: expressed in transfected cells; host or cells: HEK293
# T2 sequence (P42260 32-908): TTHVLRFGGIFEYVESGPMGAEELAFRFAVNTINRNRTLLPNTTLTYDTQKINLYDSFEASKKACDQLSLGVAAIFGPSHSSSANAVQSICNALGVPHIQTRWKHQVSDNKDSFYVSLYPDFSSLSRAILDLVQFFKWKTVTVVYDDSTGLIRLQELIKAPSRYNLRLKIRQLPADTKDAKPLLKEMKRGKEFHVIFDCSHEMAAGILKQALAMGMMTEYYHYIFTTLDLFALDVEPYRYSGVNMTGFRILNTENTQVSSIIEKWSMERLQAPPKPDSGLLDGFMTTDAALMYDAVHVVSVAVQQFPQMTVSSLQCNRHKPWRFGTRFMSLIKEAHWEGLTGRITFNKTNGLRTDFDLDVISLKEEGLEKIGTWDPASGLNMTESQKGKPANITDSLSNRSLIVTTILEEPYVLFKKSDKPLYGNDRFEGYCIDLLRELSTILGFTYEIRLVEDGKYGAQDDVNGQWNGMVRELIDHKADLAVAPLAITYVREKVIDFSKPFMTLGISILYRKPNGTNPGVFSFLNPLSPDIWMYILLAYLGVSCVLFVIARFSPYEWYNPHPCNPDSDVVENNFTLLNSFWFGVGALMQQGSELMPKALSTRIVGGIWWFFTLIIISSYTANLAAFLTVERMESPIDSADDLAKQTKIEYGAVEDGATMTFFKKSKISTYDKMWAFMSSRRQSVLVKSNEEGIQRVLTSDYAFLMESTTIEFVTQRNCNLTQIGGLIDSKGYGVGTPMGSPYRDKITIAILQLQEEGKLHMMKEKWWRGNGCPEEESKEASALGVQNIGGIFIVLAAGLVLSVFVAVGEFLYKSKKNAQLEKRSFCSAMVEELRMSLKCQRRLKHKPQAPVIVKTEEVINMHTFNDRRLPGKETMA
# Method: HEK293 cells were plated at approximately 3×10^6 cells/ml on poly-L-lysine-coated glass coverslips (Deutsche Spiegelglas, Carolina Biological) and maintained in DMEM with 5% fetal bovine serum, 0.2 mg/ml streptomycin, and 200 U/ml penicillin at 37° C. Cells were transiently transfected with various plasmids using lipofectamine 2000 (Invitrogen). The amount of total transfected iGluR6 DNA and enhanced yellow fluorescent protein (EYFP) fusion DNA per well was fixed at 4 μg and 200 ng, respectively. All recordings were carried out 36 to 48 h after transfection.
# —Cells were washed in PBS and loaded with 5 μM FURA-2-AM (Molecular Probes) for 30 min. […] Fluorescence was monitored on an inverted microscope system (Nikon). […] L-Glutamate was applied as reported in text and figures. The results are representative data from multiple cells in at least two independent cultures.
# Purkinje neurons = experiment: Loose-patch extracellular recording in cerebellar slices; type: cell-based, rat; conditions: gabazine added
# Method: Brain Slice Preparation. Parasagittal cerebellar slices were prepared using standard techniques approved by the UCLA Animal Care Committee. […] PAL attachment. […] For cerebellar slices, neuronal cell bodies were visualized using an upright microscope with a 40× water immersion lens and equipped with an infrared-DIC enhancement. Loose-patch extracellular recordings were performed using an Axopatch 200B amplifier (Axon Instruments). Electrophysiological recordings were filtered at 1 KHz and digitized at 2-4 KHz. Pipettes were typically 1.4-2.0 MΩ for recordings from PNs and 3.0-3.5 MΩ for interneurons and filled with aCSF. […] All recordings were performed at room temperature. […] Excitation filters were changed using a lambda 10-2 filter changer (Sutter Instruments) controlled via pCLAMP software.
compound,measurement,setting,value
"O=c1[nH]c2cc([N+](=O)[O-])c([N+](=O)[O-])cc2[nH]c1=O [DNQX, 6,7-dinitroquinoxaline-2,3-[1H,4H]-dione, reference compound]",solubility,Solubility,4 mM
CC[N+](CC)(CC)CC(=O)Nc1ccc(/N=N/c2ccc(NC(=O)CN3C(=O)C=CC3=O)cc2)cc1 [MAL-AZO-QA],percent of the outward current that could be photoswitched,[1],2±5%
same,time to silence spontaneous action potentials,[2]; 390 nm light,≤ 3 s
same,decrease in number of action potentials elicited by a depolarizing step,"[2]; 390 nm light, n=4",79%
same,onset of restored activity in the dark after silencing,[2]; dark,> 30 s
same,effect of light on treated neurons expressing GFP without the Shaker channels,[2]; n=4,no effect
same,wavelength most effective in unblocking channels,"[3]; action spectrum, inside-out patches",380 nm
same,return of unblocked channels to the blocked state in the dark,[3]; dark,> 5 min
same,τ1 of current block in dark (biexponential),[3]; dark,0.49 min
same,τ2 of current block in dark (biexponential),[3]; dark,4.79 min
same,current unblocked by ultraviolet light,"[3]; inside-out patch, oocytes treated with 100 μM for 30 min",≤ 1 nA
same,reduction of voltage-gated Shaker current,"[3]; outside-out patch, 10 μM, over 4 min",> 60%
same,time for unblock and re-block to nearly reach steady-state,[3]; standard epifluorescence illumination,≤ 5 s
CC[N+](CC)(CC)CC(=O)Nc1ccc(/N=N/c2ccc(NC(=O)CCl)cc2)cc1 [CAQ],light-sensitivity conferred on channel,wild-type Shaker (E422),conferred light-sensitivity
same,death of neurons,[4]; 15 min,~10%
same,loss of neurons,[4]; 60 min,~15%
same,water solubility compared with AAQ,Solubility,less water-soluble
N[C@@H](CC(CCCC(=O)NCC(=O)Nc1ccc(/N=N/c2ccc(NC(=O)CN3C(=O)C=CC3=O)cc2)cc1)C(=O)O)C(=O)O (stereo in doubt) [MAG-1],cell death compared with controls,hippocampal neurons,no difference; also recorded: no increase in cell death
same,fraction in the cis-state,[5]; 380 nm,93.0±0.6%
same,fraction in the trans-state,[5]; 500 nm,83.0±0.6%
same,"light sensitivity conferred (Ca2+ increase at 380 nm, decrease at 500 nm)",iGluR6; wildtype iGluR6 (WT),not on wildtype iGluR6
same,solubility,Solubility,0.2 mM
Cl.N[C@@H](C[C@@H](CCCC(=O)NCC(=O)Nc1ccccc1)C(=O)O)C(=O)O [tether model 3],maximal response compared with saturating glutamate,iGluR6,similar
same,EC50,"iGluR6; FURA-2-AM calcium imaging, HEK293, read-out: EC50 for activating iGluR6",180 µM
same,solubility,Solubility,10 mM
"COc1ccc(-c2ccc(=N)n(CCCC(=O)O)n2)cc1 [Gabazine, reference compound]",basal firing rate of Purkinje cells,Purkinje neurons,~15 Hz
